Holding throughout (format): cell-based, human
One test concerns caspase 3/7. Nature of the test: Caspase 3/7 activity assay. Conditions: Huh7 cells, 12 hours. The protocol: Please refer to FIG. 24, which illustrates PGG induced caspase 3/7 activity in Huh7 cells.
Huh7 cells were plated in 96-well plate and treated with solvent or PGG for 12 h. To measure caspase-3 and caspase-7 activation, the Apo-ONE® Homogeneous Caspase-3/7 assay was performed according to the Promega Technical Bulletin-Apo-ONE® Homogeneous Caspase-3/7 assay.

A further test has as its system c-Myc protein. Nature of the test: c-Myc protein expression by immunoblotting, Huh7. The conditions noted are these: Huh7 cells. On the procedure:
Please refer to FIG. 32A, FIG. 32B, FIG. 33A and FIG. 33B.
Cells or xenograft tumors were harvested with RIPA lysis buffer (50 mM Tris (pH 7.5), 150 mM NaCl, 1% Triton X-100, 0.1% sodium dodecyl sulfate (SDS), 0.5% sodium deoxycholate, supplemented with protease and phosphatase inhibitors (1 mM Phenylmethanesulfonyl Fluoride (PMSF), […], […] Tosyllysine Chloromethyl Ketone (TLCK), […] Tosyl phenylalanyl chloromethyl ketone (TPCK), […] aprotinin, 1 mM sodium fluoride (NaF), 5 mM sodium pyrophosphate (NaPPi) and 10 mM sodium orthovanadate (Na3VO4).
Protein lysates were quantified and separated on SDS-PAGE gel, and immunoblotting was carried out.

The next test deals with GNMT promoter. Nature of the test: Dual luciferase GNMT promoter reporter assay in c-Myc knocked-out Huh7 cells. The conditions noted are these: 0.1 mg/mL. The protocol: Huh7 cells were co-transfected with a GNMT promoter reporter plasmid, a thymidine kinase (TK) renilla luciferase plasmid, a shMyc plsmid or a shLacZ plasmid for 72 hours.
Evaluating whether the activity of GNMT promoter is damaged or not by knocking out the c-Myc gene and then administering with PGG, in order to confirm that the inhibition of the expression of c-Myc resulting in induced GNMT promoter due to PGG.
Please refer to FIG. 39, which illustrates overexpressions of PGG and c-Myc have influences on GNMT reporter, wherein the numeral 1 denotes the solvent, the numeral 2 denotes PGG, the numeral 3 denotes shLacZ, and the numeral 4 denotes shMyc.

SMILES strings stand for the structures.

For the compound `O=C(OC[C@H]1O[C@@H](OC(=O)c2cc(O)c(O)c(O)c2)[C@H](OC(=O)c2cc(O)c(O)c(O)c2)[C@@H](OC(=O)c2cc(O)c(O)c(O)c2)[C@@H]1OC(=O)c1cc(O)c(O)c(O)c1)c1cc(O)c(O)c(O)c1` [PGG, 1,2,3,4,6-penta-O-galloyl-β-D-glucopyranoside], in the test on caspase 3/7, the “increase in caspase 3/7 activity” value is listed as “five-fold”. In addition, in the test on c-Myc protein, the “expression of c-Myc protein, dose dependence” value is “suppresses the expression of c-Myc protein in Huh7 cells in a dose-dependent manner” and the “expression of c-Myc protein, time dependence” value is reported as “suppresses the expression of c-Myc protein in Huh7 cells in a time-dependent manner”. Also, in the test on GNMT promoter, the “GNMT promoter induction in cells knocked out c-Myc (shMyc vs shLacZ)” value is “drop”.

Source of the values: patent publication US11000535B2, “Anticancer composition and use thereof” (KAOHSIUNG MEDICAL UNIVERSITY, priority 2015, dated 2021).
